A short description of series [1]: Evaluation of toxicity: mortality and change in body weight of mouse. The format is in vivo. The settings on record: for Body weight: i.p., individual mice. As for the experimental part:
In Example 3, in order to confirm the toxicity of the peptide of the present invention, the RGD dimer was intraperitoneally administered to mouse at various concentrations (0.1 μmole, 1 μmole, and 10 μmole), and then the mortality and a change in body weight of each mouse were measured. On the other hand, as a control, a non-administration group (Normal) and a PBS-treated group (PBS) were used.

Series [2] relates to collagen-induced arthritis (CIA) mouse model. The series is described as follows: Arthritis progression index in collagen-induced arthritis mouse model. The format is in vivo, mouse (DBA/1J). The settings on record: Table 3, methotrexate 1 mg/kg. More on the design: key: 0-4 per leg, summed over four legs (0-16), mean of two observers. As for the experimental part:
In Example 2, using a collagen-induced arthritis mouse model in the following document, a therapeutic effect of a RGD dimer for a representative inflammatory disease, rheumatoid arthritis was confirmed (Nat Protoc. 2007; 2(5):1269-75.).
A collagen-induced arthritis (CIA) mouse model was prepared as follows, as an autoimmune disease-based arthritis model with characteristics similar to human rheumatoid arthritis.
First, a bovine type II collagen (Chondrex Corporation, USA) and a Freund's complete adjuvant (Chondrex Corporation, USA) were mixed at a ratio of 1:1 and emulsified, and then 50 μl of the emulsified collagen solution was injected intradermally into the tail of a 6-week-old DBA/1J mouse to induce primary immunization. At two weeks after the primary immunization, the bovine type II collagen and the Freund's complete adjuvant were mixed at a ratio of 1:1 and emulsified, and then 50 μl of the emulsified collagen solution was injected intradermally into the tail of the mouse again to induce secondary immunization (boosting).
After the secondary immunization, from the next day, the peptide of the present invention ([…] (1 μmole)) was administered intraperitoneally three times a week and a PBS-treated group was used as a control (Vehicle control). The preparation process of the collagen-induced arthritis mouse model and the administration time of the peptide were schematically illustrated in FIG. 1.
In order to investigate the development of arthritis progression according to the peptide treatment of the present invention, the deepening degree of arthritis with time was measured by evaluating an arthritis progression index. Two observers who were unaware of the specific experimental conditions evaluated progression of arthritis three times a week. In this case, the arthritis progression index was evaluated by 0 to 4 scores per leg according to an arthritis progression evaluation standard by Rossoliniec and the like in Table 1 below to be represented by a total of 0 to 16 scores (a sum of four legs), and thereafter, two observers calculated an average value of the evaluated results to digitize the severity of arthritis.
In order to confirm the efficacy for each treatment concentration of the peptide according to the present invention, by using the same method as Example 2-2, an arthritis therapeutic effect according to the peptide treatment at various concentrations (0.1 μmole, 1 μmole, and 10 μmole) was evaluated by the arthritis progression index.
Methotrexate (MTX), one of drugs which are used as arthritis therapeutic agents in a current clinical practice, had excellent anti-inflammatory and arthritis therapeutic effects as an immunodepressant, but may have side effects such as toxicity to normal cells, oral ulcer, alopecia, interstitial pneumonia, bone marrow suppression, and the like. As a result, the methotrexate is known as a drug that needs to pay close attention after medication with sufficient medication counseling. As a result, the arthritis therapeutic effect according to the peptide treatment at various concentrations was compared with that of the case of treating methotrexate (1 mg/kg).

Several values for one entry are separate records, joined by “and”; a condition that tells them apart may be missing. Identical values can stand only once. No end group written: not given here.

For the compound RDGRDG [RDG dimer, RDGRDG], the “mortality of the mouse” value in series [1] (0.1 μmole, 1 μmole or 10 μmole, intraperitoneally) is recorded as “not observed”. For the same compound, the Body weight in series [1] (10 umole, day 17) was 23.74 g and 20.75 g and 18.48 g; in series [1] (10 umole, day 21) it was 23.8 g and 21.9 g and 20.5 g; in series [1] (10 umole, day 24), 24.2 g and 22 g and 20.1 g; in series [1] (10 umole, day 27), 23.8 g and 21.6 g and 20.5 g; in series [1] (10 umole, day 31), 23.9 g and 22 g; in series [1] (10 umole, day 34), 24.8 g and 22.3 g. The Body weight was 21.65 g and 24.51 g and 18.25 g and 21.88 g and 22.3 g and 21.96 g and 18.84 g in series [1] (first group printed 1 umole, day 17); 21.8 g and 24.5 g and 18.4 g and 21.5 g and 22 g (2×) and 19.6 g in series [1] (first group printed 1 umole, day 21); 21.8 g and 24.9 g and 18.2 g and 22.4 g and 22.8 g and 21.3 g and 20.6 g in series [1] (first group printed 1 umole, day 24); 22.2 g and 25 g and 18.1 g and 22.7 g and 22.9 g and 21.3 g and 20.5 g in series [1] (first group printed 1 umole, day 27); 22.4 g and 25.3 g and 18.8 g and 22.3 g and 22.6 g and 21.2 g and 20.7 g in series [1] (first group printed 1 umole, day 31); 23.1 g (2×) and 26.1 g and 19 g and 23 g and 22.6 g and 21.8 g in series [1] (first group printed 1 umole, day 34). Further, the Body weight in series [1] (second group printed 1 umole, day 17) was 22.7 g (2×) and 21.3 g and 18.96 g and 20.63 g and 20.61 g and 21.07 g; in series [1] (second group printed 1 umole, day 21), 22.3 g and 22.4 g and 19.6 g and 20.6 g and 21.1 g and 21.3 g and 22.6 g; in series [1] (second group printed 1 umole, day 24), 23.9 g and 22.2 g and 20 g and 20.8 g and 21.4 g and 21.7 g and 23.2 g; in series [1] (second group printed 1 umole, day 27), 24.4 g and 22.3 g and 20.1 g and 21.2 g and 21.3 g and 21.7 g and 23.3 g; in series [1] (second group printed 1 umole, day 31), 22.6 g and 22.7 g and 20.2 g and 20.1 g and 21.3 g and 22.2 g and 23.4 g; in series [1] (second group printed 1 umole, day 34), 23 g and 23.6 g and 20.5 g and 18.6 g and 20.6 g and 22.5 g and 24.2 g. Besides, the “difference in body weight from the control” value in series [1] (all the concentrations (0.1, 1 and 10 μmole), intraperitoneally) is on record as “did not have a large difference”.

As to `CN(Cc1cnc2nc(N)nc(N)c2n1)c1ccc(C(=O)N[C@@H](CCC(=O)O)C(=O)O)cc1` [MTX, methotrexate], the arthritis progression index in series [2] (day 20) was determined as 0.8; in series [2] (day 22), 0.8; in series [2] (day 24), 1.0; in series [2] (day 27) it was 1.2; in series [2] (day 29), 1.4; in series [2] (day 31), 1.8. Further, the arthritis progression index in series [2] (day 34) turned out to be 1.8; in series [2] (day 36), 3.2.

(Values after patent US10913772B2, “Peptide for preventing or treating inflammatory diseases and use thereof” (KINE SCIENCES Co., Ltd., priority 2016, dated 2021).)
